The structures appear in SMILES notation. Where two headings read alike, the source gives them in different places.

These results are taken from US5229410A, “6-substituted-hexahydrobenz[cd]indoles” (Eli Lilly and Company, priority 1991, dated 1993).

In one experiment the target is T1, central 5-HT1A receptors (Rattus norvegicus, UniProt P19327).
T1 construct: the brains were rapidly chilled and dissected to obtain the hippocampi; from tissue; host or cells: hippocampus of male Sprague-Dawley rats (washed membranes)
T1 sequence (P19327 1-422): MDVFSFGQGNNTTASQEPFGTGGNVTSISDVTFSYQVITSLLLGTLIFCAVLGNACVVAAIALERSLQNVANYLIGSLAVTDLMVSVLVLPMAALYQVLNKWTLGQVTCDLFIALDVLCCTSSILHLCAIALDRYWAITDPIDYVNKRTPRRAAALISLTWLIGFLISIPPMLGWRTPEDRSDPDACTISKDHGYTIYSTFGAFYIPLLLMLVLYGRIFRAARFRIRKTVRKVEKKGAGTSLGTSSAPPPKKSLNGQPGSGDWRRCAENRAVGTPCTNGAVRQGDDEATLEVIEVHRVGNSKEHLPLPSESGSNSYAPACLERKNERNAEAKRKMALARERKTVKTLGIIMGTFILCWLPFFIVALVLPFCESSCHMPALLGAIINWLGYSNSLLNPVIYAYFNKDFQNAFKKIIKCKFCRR
Nature of the experiment: 5-HT1A receptor binding ([3H]8-OH-DPAT displacement, rat hippocampal membranes). Also noted: species or system male Sprague-Dawley rats. The protocol: The affinities of the compounds at the central 5-HT1A receptors were determined using a modification of the binding assay described by Taylor, et al., (J. Pharmacol. Exp. Ther. 236:118-125, 1986). Membranes for the binding assay were prepared from male Sprague-Dawley rats (150-250 g). The animals were killed by decapitation, and the brains were rapidly chilled and dissected to obtain the hippocampi. The hippocampi were either prepared that day or stored frozen (-70° C.) until the day of preparation. Membranes were prepared by homogenizing the tissue in 40 volumes of ice-cold Tris-HCl buffer (50 mM, pH 7.4 at 22° C.) using a Techmar Tissumizer (setting 65 for 15 sec), and the homogenate was centrifuged at 39800×g for 10 min. The resulting pellet was then resuspended in the same buffer, and the centrifugation and resuspension process was repeated three additional times to wash the membranes. Between the second and third washes the resuspended membranes were incubated for 10 min at 37° C. to facilitate the removal of endogenous ligands. The final pellet was resuspended in 67 mM Tris-HCl, pH 7.4, to a concentration of 2 mg of tissue original wet weight/200 μl. This homogenate was stored frozen (-70° C.) until the day of the binding assay. […] The assay tubes were incubated for 10 min at 37° C., and the contents were then rapidly filtered through GF/B filters (pretreated with 0.5% polyethylenimine), followed by four one-mL washes with ice cold buffer. The radioactivity trapped by the filters was quantitated by liquid scintillation spectrometry, and specific [^3 H]8-OH-DPAT binding to the 5-HT1A sites was defined as the difference between [^3 H]8-OH-DPAT bound in the presence and absence of 10 μM 5-HT.
The affinity of the particular compound at the 5-HT1A receptor is expressed as IC50 value, i.e., the concentration required to inhibit 50% of the binding. The IC50 values were determined from 12-point competition curves using nonlinear regression (SYSTAT, SYSTAT, INC., Evanston, Ill.).

The target in experiment [1] is T2, central 5-HT1D binding sites (Bos taurus, UniProt F1MGM3).
T2 construct: Bovine brains were obtained from Pel-Freeze Biologicals, and the caudate nuclei were dissected out; tissue Pel-Freeze Biologicals; host or cells: bovine caudate nuclei (washed membranes)
T2 sequence (F1MGM3 1-403): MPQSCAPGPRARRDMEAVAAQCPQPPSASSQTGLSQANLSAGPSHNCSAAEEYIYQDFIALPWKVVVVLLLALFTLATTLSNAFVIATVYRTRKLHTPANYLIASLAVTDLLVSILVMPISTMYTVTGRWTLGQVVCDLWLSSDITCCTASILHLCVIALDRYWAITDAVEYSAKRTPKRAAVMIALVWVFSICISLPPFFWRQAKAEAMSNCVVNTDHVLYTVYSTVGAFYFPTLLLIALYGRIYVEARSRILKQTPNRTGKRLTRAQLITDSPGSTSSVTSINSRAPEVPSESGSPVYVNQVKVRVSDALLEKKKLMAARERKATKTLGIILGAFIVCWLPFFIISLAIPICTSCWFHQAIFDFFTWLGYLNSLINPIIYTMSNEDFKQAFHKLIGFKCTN
Nature of the experiment: 5-HT1D binding ([3H]5-HT displacement, bovine caudate nuclei membranes). The procedure: The affinities of the compounds at the central 5-HT1D binding sites were determined using a modification of the binding assay described by Heuring and Peroutka (J. Neurosci. 7:894-903, 1987). Bovine brains were obtained from Pel-Freeze Biologicals, and the caudate nuclei were dissected out and frozen at -70° C. until the time that the membranes were prepared for the binding assays. At that time the tissues were homogenized in 40 volumes of ice-cold Tris-HCl buffer (50 mM, pH 7.4 at 22° C.) with a Techmar Tissumizer (setting 65 for 15 sec), and the homogenate was centrifuged at 39,800 g for 10 min. The resulting pellet was then resuspended in the same buffer, and the centrifugation and resuspension process was repeated three additional times to wash the membranes. Between the second and third washes the resuspended membranes were incubated for 10 min at 37° C. to facilitate the removal of endogenous 5-HT. The final pellet was resuspended in Tris buffer to a concentration of 25 mg of original tissue wet weight/ml for use in the binding assay. […] The assay tubes were incubated for 10 min at 37° C., and the contents were then rapidly filtered through GF/B filters (pretreated with 0.5% polyethylenimine), followed by four one-mL washes with ice-cold buffer. The radioactivity trapped by the filters was quantitated by liquid scintillation spectrometry, and specific [^3 H]5-HT binding to the 5-HT1D sites was defined as the difference between [^3 H]5-HT bound in the presence and absence of 10 μM 5-HT.
The affinities of compounds at the 5-HT1D receptor are expressed as IC50 values, i.e., the concentration required to inhibit 50% of the binding. These values were determined from 12-point competition curves using nonlinear regression (SYSTAT, SYSTAT, Inc., Evanston, Ill.).

Another experiment concerns Brain 5-hydroxyindoles. Nature of the experiment: brain 5-hydroxyindoles in vivo after subcutaneous injection. Also on record: species or system male albino rats. Conditions: 1 hour, * = P<0.05 vs control. The procedure: (§1) Certain compounds were evaluated to determine their ability to affect the 5-hydroxyindoles serotonin, 5-hydroxyindole acetic acid (5HIAA) and serum corticosterone, in vivo, using the following procedures.
(§2) Compounds in aqueous solution were injected subcutaneously into male albino rats. Rats were decapitated one hour later. Trunk blood was collected and allowed to clot; after centrifugation, serum was stored frozen prior to analysis. Whole brain was removed and frozen on dry ice, then stored frozen prior to analysis. Serum corticosterone concentration was measured spectrofluorometrically (J. H. Solem and T. Brinch-Johnsen, "An evaluation of a method for determination of free corticosteroids in minute quantities of mouse plasma," Scand. J. Clin. Lab. Invest. (Suppl. 80), 1.14 (1965).) 5-Hydroxyindoleacetic acid (5HIAA) concentration in whole brain was measured by liquid chromatography with electrochemical detection. (Ray W. Fuller and Kenneth W. Perry, "Effects of buspirone and its metabolite, 1-(2-pyrimidinyl)piperazine, on brain monoamines and their metabolites in rats", J. Pharmacol. Exp. Ther. 248, 50-56 (1989).) The results are provided in Table III.

In another experiment the test system is serum corticosterone. Put plainly: serum corticosterone in vivo after subcutaneous injection. Also noted: species or system male albino rats. The following applies: 1 hour, * = P<0.05 vs control. The procedure:
as §1, §2

[2] abbreviates: [3H]8-OH-DPAT 1.0 nM, rat hippocampi, pH 7.4, 37° C., 10 min, read-out: 5HT1A IC50 (concentration required to inhibit 50% of the binding).
[3] abbreviates: [3H]5-HT 1.7-1.9 nM, bovine caudate, 8-OH-DPTA and mesulergine 100 nM as masks, pH 7.4, 37° C., 10 min, read-out: 5HT1D IC50 (concentration required to inhibit 50% of the binding).

`CCCN(CCC)[C@@H]1Cc2c(C(C)=O)ccc3c2[C@@H](CN3)C1` [Example 5, (2aS,4S)-6-acetyl-4-(di-n-propylamino)-1,2,2a,3,4,5-hexahydrobenz[cd]indole]: the IC50 on central 5-HT1A receptors (setting [2]) is 0.31 nM; in experiment [1] (setting [3]) it was 129 nM.

With `CCCN(CCC)C1Cc2c(C(=O)C(C)C)ccc3c2C(CN3)C1` (single isomer, unassigned; (-)) [Example 9, (-)-6-(2-methylpropanoyl)-4-(di-n-propylamino)-1,2,2a,3,4,5-hexahydrobenz[cd]indole], the “Brain 5-HIAA” value with Brain 5-hydroxyindoles (0.003 mg/Kg s.c.) is listed as 1.68 ± 0.10 n moles/g; in the experiment with Brain 5-hydroxyindoles (0.03 mg/Kg s.c.), 1.91 ± 0.06 n moles/g; in the experiment with Brain 5-hydroxyindoles (0.3 mg/Kg s.c.), 1.74 ± 0.04 n moles/g. Besides, the Brain serotonin in the experiment on Brain 5-hydroxyindoles (0.003 mg/Kg s.c.) is 1.83 ± 0.08 n moles/g; in the experiment on Brain 5-hydroxyindoles (0.03 mg/Kg s.c.), 1.90 ± 0.10 n moles/g; in the experiment on Brain 5-hydroxyindoles (0.3 mg/Kg s.c.) it was 1.69 ± 0.06 n moles/g. For the same compound, the “Serum Corticosterone” value came to 4.1 ± 0.5 μg/100 ml in the experiment with serum corticosterone (0.003 mg/Kg s.c.), 6.0 ± 1.6 μg/100 ml in the experiment with serum corticosterone (0.03 mg/Kg s.c.) and 6.7 ± 2.0 μg/100 ml with serum corticosterone (0.3 mg/Kg s.c.). Besides, the IC50 at central 5-HT1A receptors (setting [2]) was 54.9 nM; in experiment [1] (setting [3]), 3130 nM.

Turning to `CCCN(CCC)[C@H]1Cc2c(C(C)=O)ccc3c2[C@@H](CN3)C1` (relative stereo) [Example 3, 6-acetyl-4-(di-n-propylamino)-1,2,2a,3,4,5-hexahydrobenz[cd]indole], the IC50 on central 5-HT1A receptors came to 0.63 nM; in experiment [1], 7.47 nM.

For `CCCN(CCC)[C@H]1Cc2c(C(=O)C(C)C)ccc3c2[C@@H](CN3)C1` [Example 8, (+)-(2aS,4R)-6-(2-methylpropanoyl)-4-(di-n-propylamino)-1,2,2a,3,4,5-hexahydrobenz[cd]indole], the results for the “Brain 5-HIAA” value in the experiment on Brain 5-hydroxyindoles (0.003 mg/Kg s.c.), with Brain 5-hydroxyindoles (0.03 mg/Kg s.c.) and with Brain 5-hydroxyindoles (0.3 mg/Kg s.c.) were 1.56 ± 0.10 n moles/g, 1.34 ± 0.06 n moles/g and 1.30 ± 0.07 n moles/g, respectively. In addition, the figures for the Brain serotonin in the experiment with Brain 5-hydroxyindoles (0.003 mg/Kg s.c.), with Brain 5-hydroxyindoles (0.03 mg/Kg s.c.) and in the experiment on Brain 5-hydroxyindoles (0.3 mg/Kg s.c.) were 1.88 ± 0.05 n moles/g, 2.26 ± 0.06 n moles/g and 2.26 ± 0.16 n moles/g, respectively. For the same compound, the “Serum Corticosterone” value with serum corticosterone (0.003 mg/Kg s.c.) came out at 3.6 ± 0.7 μg/100 ml; in the experiment on serum corticosterone (0.03 mg/Kg s.c.), 27.1 ± 6.4 μg/100 ml; in the experiment on serum corticosterone (0.3 mg/Kg s.c.), 42.0 ± 0.4 μg/100 ml. In addition, the figures for the IC50 (on central 5-HT1A receptors (setting [2]); in experiment [1] (setting [3])) were 0.25 nM and 1.24 nM, respectively.

As for `CCCN(CCC)[C@H]1Cc2c(C(=O)Cc3ccccc3)ccc3c2[C@@H](CN3)C1` [Example 13, (+)-(2aS,4R)-6-(2-phenylethanoyl)-4-(di-n-propylamino)-1,2,2a,3,4,5-hexahydrobenz[cd]indole], the figures for the IC50 (at central 5-HT1A receptors (setting [2]); in experiment [1] (setting [3])) were 0.98 nM and 2.7 nM, respectively.

`CCCN(CCC)[C@H]1Cc2c(C(C)=O)ccc3c2[C@@H](CN3)C1` [Example 6, (+)-(2aS,4R)-6-acetyl-4-(di-n-propylamino)-1,2,2a,3,4,5-hexahydrobenz[cd]indole]: the “Brain 5-HIAA” value in the experiment with Brain 5-hydroxyindoles (0.003 mg/Kg s.c.) is 1.81 ± 0.14 n moles/g; in the experiment on Brain 5-hydroxyindoles (0.03 mg/Kg s.c.), 1.58 ± 0.08 n moles/g; in the experiment with Brain 5-hydroxyindoles (0.3 mg/Kg s.c.), 1.41 ± 0.03 n moles/g. Besides, the Brain serotonin is on record as 2.46 ± 0.14 n moles/g with Brain 5-hydroxyindoles (0.003 mg/Kg s.c.), 2.99 ± 0.06 n moles/g with Brain 5-hydroxyindoles (0.03 mg/Kg s.c.) and 3.08 ± 0.04 n moles/g in the experiment on Brain 5-hydroxyindoles (0.3 mg/Kg s.c.). The “Serum Corticosterone” value in the experiment on serum corticosterone (0.003 mg/Kg s.c.) is given as 5.8 ± 1.0 μg/100 ml; with serum corticosterone (0.03 mg/Kg s.c.) it was 10.6 ± 2.0 μg/100 ml; in the experiment on serum corticosterone (0.3 mg/Kg s.c.), 42.2 ± 1.1 μg/100 ml. The IC50 on central 5-HT1A receptors (setting [2]) was 0.3 nM; in experiment [1] (setting [3]), 6.25 nM.

Turning to `CCCN(CCC)[C@H]1Cc2c(C(C)=O)ccc3c2[C@H](CN3)C1` [Example 4, (2aR,4R)-6-acetyl-4-(di-n-propylamino)-1,2,2a,3,4,5-hexahydrobenz[cd]indole], the IC50 on central 5-HT1A receptors (setting [2]) came out at 0.8 nM; in experiment [1] (setting [3]), 236 nM.

Take `CCCN(CCC)[C@H]1Cc2c(C(=O)c3ccccc3)ccc3c2[C@@H](CN3)C1` [Example 12, (+)-(2aS,4R)-6-(benzoyl)-4-(di-n-propylamine)-1,2,2a,3,4,5-hexahydrobenz[cd]indole]: the IC50 is 0.34 nM at central 5-HT1A receptors (setting [2]) and 1.78 nM in experiment [1] (setting [3]).

Consider `CCCN(CCC)[C@@H]1Cc2c(C(C)=O)ccc3c2[C@H](CN3)C1` [Example 7, (-) (2aR,4S)-6-acetyl-4-(di-n-propylamino)-1,2,2a,3,4,5-hexahydrobenz[cd]indole], for which the “Brain 5-HIAA” value in the experiment with Brain 5-hydroxyindoles (0.003 mg/Kg s.c.) is 2.06 ± 0.13 n moles/g; in the experiment on Brain 5-hydroxyindoles (0.03 mg/Kg s.c.), 1.87 ± 0.07 n moles/g; with Brain 5-hydroxyindoles (0.3 mg/Kg s.c.) it was 1.77 ± 0.17 n moles/g. Moreover, the Brain serotonin in the experiment with Brain 5-hydroxyindoles (0.003 mg/Kg s.c.) was found to be 2.75 ± 0.05 n moles/g; in the experiment on Brain 5-hydroxyindoles (0.03 mg/Kg s.c.), 2.57 ± 0.10 n moles/g; in the experiment with Brain 5-hydroxyindoles (0.3 mg/Kg s.c.) it was 2.85 ± 0.08 n moles/g. For the same compound, the figures for the “Serum Corticosterone” value in the experiment with serum corticosterone (0.003 mg/Kg s.c.), in the experiment with serum corticosterone (0.03 mg/Kg s.c.) and with serum corticosterone (0.3 mg/Kg s.c.) were 3.8 ± 0.5 μg/100 ml, 6.5 ± 2.6 μg/100 ml and 8.4 ± 4.0 μg/100 ml, respectively. For the same compound, the values for the IC50 (at central 5-HT1A receptors (setting [2]); in experiment [1] (setting [3])) were 6.61 nM and 8500 nM, respectively.

As for `CCCN(CCC)[C@@H]1Cc2c(C(=O)CC)ccc3c2[C@H](CN3)C1` [Example 10, (-)-(2aR,4S)-6-(propanoyl)-4-(di-n-propylamino)-1,2,2a,3,4,5-hexahydrobenz[cd]indole], the IC50 at central 5-HT1A receptors (setting [2]) came to 9.47 nM; in experiment [1] (setting [3]) it was 9000 nM.
